{"source": "ChEMBL document CHEMBL1155237", "about": "“Selective inhibitors of the mutant B-Raf pathway: discovery of a potent and orally bioavailable aminoisoquinoline” (J Med Chem, 2009)", "key": {"[1]": {"molecular_target": "Macrophage colony-stimulating factor 1 receptor (Homo sapiens) (UniProt P07333)", "sequence (P07333 whole entry)": "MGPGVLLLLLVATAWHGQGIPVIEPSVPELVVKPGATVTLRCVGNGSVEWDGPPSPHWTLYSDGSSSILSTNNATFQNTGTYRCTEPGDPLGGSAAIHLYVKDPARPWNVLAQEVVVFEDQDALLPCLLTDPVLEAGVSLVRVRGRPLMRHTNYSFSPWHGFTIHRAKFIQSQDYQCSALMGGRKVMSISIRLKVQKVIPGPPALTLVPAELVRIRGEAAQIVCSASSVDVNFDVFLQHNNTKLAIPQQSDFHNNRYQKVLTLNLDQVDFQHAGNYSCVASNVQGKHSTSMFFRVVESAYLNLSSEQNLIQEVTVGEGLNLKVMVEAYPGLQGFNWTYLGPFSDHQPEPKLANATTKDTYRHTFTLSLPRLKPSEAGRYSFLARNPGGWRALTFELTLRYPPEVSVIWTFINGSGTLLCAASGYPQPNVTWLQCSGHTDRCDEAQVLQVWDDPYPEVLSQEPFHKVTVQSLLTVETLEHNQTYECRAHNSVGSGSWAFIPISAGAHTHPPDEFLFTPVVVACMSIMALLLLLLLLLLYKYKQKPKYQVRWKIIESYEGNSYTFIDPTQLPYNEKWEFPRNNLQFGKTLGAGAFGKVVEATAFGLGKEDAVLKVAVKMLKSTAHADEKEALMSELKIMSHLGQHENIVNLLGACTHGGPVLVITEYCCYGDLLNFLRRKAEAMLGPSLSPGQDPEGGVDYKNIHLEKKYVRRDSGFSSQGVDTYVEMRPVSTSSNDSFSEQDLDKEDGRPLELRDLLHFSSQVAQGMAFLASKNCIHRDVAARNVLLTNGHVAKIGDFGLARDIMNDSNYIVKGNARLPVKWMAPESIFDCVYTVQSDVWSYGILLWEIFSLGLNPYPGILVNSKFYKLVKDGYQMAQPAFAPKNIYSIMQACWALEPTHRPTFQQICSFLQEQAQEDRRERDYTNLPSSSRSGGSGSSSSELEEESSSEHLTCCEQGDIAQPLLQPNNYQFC", "assay": "Inhibition of CSF1R assessed as enzyme activity at 1 uM relative to untreated control", "design": "scale not given: the % may be the effect or the level left"}, "[2]": {"molecular_target": "Phosphatidylinositol 4,5-bisphosphate 3-kinase catalytic subunit beta isoform (Homo sapiens) (UniProt P42338)", "sequence (P42338 whole entry, looked up, canonical isoform)": "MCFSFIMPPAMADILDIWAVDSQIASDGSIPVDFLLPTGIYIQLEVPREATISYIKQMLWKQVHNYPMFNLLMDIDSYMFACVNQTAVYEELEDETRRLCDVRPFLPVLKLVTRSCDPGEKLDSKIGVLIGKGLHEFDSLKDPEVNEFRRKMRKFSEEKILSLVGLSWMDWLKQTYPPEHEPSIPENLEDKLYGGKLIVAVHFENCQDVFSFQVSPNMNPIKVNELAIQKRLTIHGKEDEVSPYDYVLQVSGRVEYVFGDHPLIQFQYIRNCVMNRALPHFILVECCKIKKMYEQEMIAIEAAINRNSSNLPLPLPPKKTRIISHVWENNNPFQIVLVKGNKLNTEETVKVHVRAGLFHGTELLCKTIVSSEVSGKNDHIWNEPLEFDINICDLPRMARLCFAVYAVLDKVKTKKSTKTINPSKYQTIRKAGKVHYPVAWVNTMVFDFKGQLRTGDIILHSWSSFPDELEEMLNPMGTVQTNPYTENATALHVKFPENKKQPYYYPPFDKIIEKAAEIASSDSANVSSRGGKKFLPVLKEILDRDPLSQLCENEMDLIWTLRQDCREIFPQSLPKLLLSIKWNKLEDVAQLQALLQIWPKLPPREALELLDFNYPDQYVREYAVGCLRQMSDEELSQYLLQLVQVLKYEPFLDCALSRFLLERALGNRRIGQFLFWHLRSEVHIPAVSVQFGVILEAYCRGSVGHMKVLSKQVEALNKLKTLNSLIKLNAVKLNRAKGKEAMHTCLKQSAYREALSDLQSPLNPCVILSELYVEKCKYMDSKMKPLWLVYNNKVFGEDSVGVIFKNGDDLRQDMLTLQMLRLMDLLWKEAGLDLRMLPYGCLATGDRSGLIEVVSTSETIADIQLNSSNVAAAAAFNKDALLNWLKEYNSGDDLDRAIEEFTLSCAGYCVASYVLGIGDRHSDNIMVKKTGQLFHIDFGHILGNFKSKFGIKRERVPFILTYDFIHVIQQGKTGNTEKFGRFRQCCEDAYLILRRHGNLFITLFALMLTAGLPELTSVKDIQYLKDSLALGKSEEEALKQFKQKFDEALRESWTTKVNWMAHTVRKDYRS", "assay": "Inhibition of PIK3CB assessed as enzyme activity at 1 uM relative to untreated control", "design": "scale not given: the % may be the effect or the level left"}, "[3]": {"molecular_target": "5'-AMP-activated protein kinase catalytic subunit alpha-1 (Homo sapiens) (UniProt Q13131)", "assay": "Inhibition of AMPKalpha1 assessed as enzyme activity at 1 uM relative to untreated control", "design": "scale not given: the % may be the effect or the level left"}, "[4]": {"molecular_target": "Calcium/calmodulin-dependent protein kinase type 1D (Homo sapiens) (UniProt Q8IU85)", "sequence (Q8IU85 whole entry, looked up)": "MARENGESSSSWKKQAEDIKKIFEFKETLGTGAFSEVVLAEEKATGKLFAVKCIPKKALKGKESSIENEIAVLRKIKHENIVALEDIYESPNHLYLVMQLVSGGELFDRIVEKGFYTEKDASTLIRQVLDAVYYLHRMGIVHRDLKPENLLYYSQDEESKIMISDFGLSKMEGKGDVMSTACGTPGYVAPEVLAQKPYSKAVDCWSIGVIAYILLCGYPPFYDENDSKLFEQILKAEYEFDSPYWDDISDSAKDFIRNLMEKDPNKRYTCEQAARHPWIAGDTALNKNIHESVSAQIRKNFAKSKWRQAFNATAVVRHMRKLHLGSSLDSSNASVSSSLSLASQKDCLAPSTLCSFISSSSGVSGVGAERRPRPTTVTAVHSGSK", "assay": "Inhibition of CAMK1D assessed as enzyme activity at 1 uM relative to untreated control", "design": "scale not given: the % may be the effect or the level left"}, "[5]": {"molecular_target": "Mitogen-activated protein kinase 10 (Homo sapiens) (UniProt P53779)", "assay": "Inhibition of JNK3 assessed as enzyme activity at 1 uM relative to untreated control", "design": "scale not given: the % may be the effect or the level left"}, "[6]": {"molecular_target": "Serine/threonine-protein kinase PLK4 (Homo sapiens) (UniProt O00444)", "assay": "Inhibition of PLK4 assessed as enzyme activity at 1 uM relative to untreated control", "design": "scale not given: the % may be the effect or the level left"}, "[7]": {"molecular_target": "Serine/threonine-protein kinase Chk1 (Homo sapiens) (UniProt O14757)", "assay": "Inhibition of CHEK1 assessed as enzyme activity at 1 uM relative to untreated control", "design": "scale not given: the % may be the effect or the level left"}, "[8]": {"molecular_target": "Serine/threonine-protein kinase 36 (Homo sapiens) (UniProt Q9NRP7)", "assay": "Inhibition of STK36 assessed as enzyme activity at 1 uM relative to untreated control", "design": "scale not given: the % may be the effect or the level left"}, "[9]": {"molecular_target": "STE20-like serine/threonine-protein kinase (Homo sapiens) (UniProt Q9H2G2)", "assay": "Inhibition of SLK assessed as enzyme activity at 1 uM relative to untreated control", "design": "scale not given: the % may be the effect or the level left"}, "[10]": {"molecular_target": "Inhibitor of nuclear factor kappa-B kinase subunit beta (Homo sapiens) (UniProt O14920)", "assay": "Inhibition of IKK-beta assessed as enzyme activity at 1 uM relative to untreated control", "design": "scale not given: the % may be the effect or the level left"}, "[11]": {"molecular_target": "Ribosomal protein S6 kinase alpha-5 (Homo sapiens) (UniProt O75582)", "assay": "Inhibition of RPS6KA5 kinase domain 2 assessed as enzyme activity at 1 uM relative to untreated control", "design": "scale not given: the % may be the effect or the level left"}, "[12]": {"molecular_target": "Protein-tyrosine kinase 2-beta (Homo sapiens) (UniProt Q14289)", "assay": "Inhibition of PTK2B assessed as enzyme activity at 1 uM relative to untreated control", "design": "scale not given: the % may be the effect or the level left"}, "[13]": {"system": "Mast/stem cell growth factor receptor Kit (Homo sapiens), P10721 [V559D]", "assay": "Inhibition of KIT V559D mutant assessed as enzyme activity at 1 uM relative to untreated control", "design": "scale not given: the % may be the effect or the level left"}, "[14]": {"molecular_target": "Bone morphogenetic protein receptor type-2 (Homo sapiens) (UniProt Q13873)", "assay": "Inhibition of BMPR2 assessed as enzyme activity at 1 uM relative to untreated control", "design": "scale not given: the % may be the effect or the level left"}, "[15]": {"molecular_target": "Ribosomal protein S6 kinase alpha-6 (Homo sapiens) (UniProt Q9UK32)", "sequence (Q9UK32 whole entry, the tested form may be a part)": "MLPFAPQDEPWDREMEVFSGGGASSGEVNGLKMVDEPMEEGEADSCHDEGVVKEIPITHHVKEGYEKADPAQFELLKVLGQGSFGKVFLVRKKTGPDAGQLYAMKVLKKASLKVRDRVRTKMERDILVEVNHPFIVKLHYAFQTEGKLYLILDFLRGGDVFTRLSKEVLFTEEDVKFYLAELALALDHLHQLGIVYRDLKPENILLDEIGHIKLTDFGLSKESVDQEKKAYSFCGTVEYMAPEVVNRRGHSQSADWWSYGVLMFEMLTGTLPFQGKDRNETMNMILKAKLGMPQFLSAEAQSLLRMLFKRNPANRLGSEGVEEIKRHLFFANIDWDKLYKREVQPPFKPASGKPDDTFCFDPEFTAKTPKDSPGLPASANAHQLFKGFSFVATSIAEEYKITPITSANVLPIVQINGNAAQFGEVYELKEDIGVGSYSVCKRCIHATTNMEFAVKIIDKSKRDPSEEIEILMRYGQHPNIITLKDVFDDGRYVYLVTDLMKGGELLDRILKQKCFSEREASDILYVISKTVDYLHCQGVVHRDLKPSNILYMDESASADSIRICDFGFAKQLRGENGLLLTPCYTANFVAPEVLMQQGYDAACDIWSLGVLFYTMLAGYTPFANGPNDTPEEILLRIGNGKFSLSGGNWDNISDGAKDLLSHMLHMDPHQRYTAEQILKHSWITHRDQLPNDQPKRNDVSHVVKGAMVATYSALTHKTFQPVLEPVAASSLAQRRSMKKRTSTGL", "assay": "Inhibition of RPS6KA6 kinase domain 2 assessed as enzyme activity at 1 uM relative to untreated control", "design": "scale not given: the % may be the effect or the level left"}, "[16]": {"molecular_target": "Dual specificity mitogen-activated protein kinase kinase 3 (Homo sapiens) (UniProt P46734)", "assay": "Inhibition of MEK3 assessed as enzyme activity at 1 uM relative to untreated control", "design": "scale not given: the % may be the effect or the level left"}, "[17]": {"molecular_target": "Serine/threonine-protein kinase MRCK alpha (Homo sapiens) (UniProt Q5VT25)", "assay": "Inhibition of MRCKA assessed as enzyme activity at 1 uM relative to untreated control", "design": "scale not given: the % may be the effect or the level left"}, "[18]": {"molecular_target": "Fibroblast growth factor receptor 3 (Homo sapiens) (UniProt P22607)", "sequence (P22607 23-806 limits assumed)": "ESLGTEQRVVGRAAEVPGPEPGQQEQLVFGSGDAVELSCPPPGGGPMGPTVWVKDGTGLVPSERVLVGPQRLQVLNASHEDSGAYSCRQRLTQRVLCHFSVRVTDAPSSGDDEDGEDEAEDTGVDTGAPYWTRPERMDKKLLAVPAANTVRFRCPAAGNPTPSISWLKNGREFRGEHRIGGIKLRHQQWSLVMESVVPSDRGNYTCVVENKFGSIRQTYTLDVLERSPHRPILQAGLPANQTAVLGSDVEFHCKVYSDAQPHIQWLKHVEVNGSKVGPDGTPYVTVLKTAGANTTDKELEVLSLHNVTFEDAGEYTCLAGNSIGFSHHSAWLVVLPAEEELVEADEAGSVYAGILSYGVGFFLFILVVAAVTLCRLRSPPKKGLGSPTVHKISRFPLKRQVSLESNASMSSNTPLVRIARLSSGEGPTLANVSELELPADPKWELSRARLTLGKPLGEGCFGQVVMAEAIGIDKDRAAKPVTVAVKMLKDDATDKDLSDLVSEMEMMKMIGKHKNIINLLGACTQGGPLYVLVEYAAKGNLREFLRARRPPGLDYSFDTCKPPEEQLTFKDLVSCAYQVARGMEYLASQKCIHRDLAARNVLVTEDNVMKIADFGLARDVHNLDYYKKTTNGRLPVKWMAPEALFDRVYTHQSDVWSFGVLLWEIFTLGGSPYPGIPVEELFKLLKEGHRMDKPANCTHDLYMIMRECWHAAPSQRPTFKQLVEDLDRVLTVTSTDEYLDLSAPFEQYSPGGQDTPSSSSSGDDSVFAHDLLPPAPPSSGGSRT", "assay": "Inhibition of FGFR3 assessed as enzyme activity at 1 uM relative to untreated control", "design": "scale not given: the % may be the effect or the level left"}, "[19]": {"molecular_target": "Serine/threonine-protein kinase DCLK3 (Homo sapiens) (UniProt Q9C098)", "sequence (Q9C098 whole entry)": "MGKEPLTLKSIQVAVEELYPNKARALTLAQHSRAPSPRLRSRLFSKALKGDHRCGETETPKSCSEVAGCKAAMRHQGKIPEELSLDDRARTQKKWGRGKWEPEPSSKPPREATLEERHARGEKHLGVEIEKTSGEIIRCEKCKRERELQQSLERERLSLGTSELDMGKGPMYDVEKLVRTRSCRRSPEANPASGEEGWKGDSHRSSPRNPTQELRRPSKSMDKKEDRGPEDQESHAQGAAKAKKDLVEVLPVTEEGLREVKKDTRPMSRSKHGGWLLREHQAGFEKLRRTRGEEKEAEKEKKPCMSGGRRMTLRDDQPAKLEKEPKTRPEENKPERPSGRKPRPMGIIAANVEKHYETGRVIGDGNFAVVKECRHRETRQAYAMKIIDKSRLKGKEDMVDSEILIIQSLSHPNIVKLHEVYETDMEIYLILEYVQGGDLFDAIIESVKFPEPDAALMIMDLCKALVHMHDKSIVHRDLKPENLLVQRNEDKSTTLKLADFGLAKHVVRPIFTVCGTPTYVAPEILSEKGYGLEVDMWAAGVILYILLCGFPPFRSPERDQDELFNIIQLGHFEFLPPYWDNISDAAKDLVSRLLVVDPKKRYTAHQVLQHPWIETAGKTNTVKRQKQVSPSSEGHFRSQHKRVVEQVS", "assay": "Inhibition of DCAMKL3 assessed as enzyme activity at 1 uM relative to untreated control", "design": "scale not given: the % may be the effect or the level left"}, "[20]": {"molecular_target": "RAF proto-oncogene serine/threonine-protein kinase (Homo sapiens) (UniProt P04049)", "assay": "Inhibition of RAF1 assessed as enzyme activity at 1 uM relative to untreated control", "design": "scale not given: the % may be the effect or the level left"}, "[21]": {"assay": "Oral bioavailability in Sprague-Dawley rat at 5 mg/kg", "assay_type": "ADME, organism-based", "settings": "in vivo"}, "[22]": {"molecular_target": "Casein kinase I isoform gamma-3 (Homo sapiens) (UniProt Q9Y6M4)", "assay": "Inhibition of CSNK1G3 assessed as enzyme activity at 1 uM relative to untreated control", "design": "scale not given: the % may be the effect or the level left"}, "[23]": {"molecular_target": "Serine/threonine-protein kinase 32B (Homo sapiens) (UniProt Q9NY57)", "assay": "Inhibition of YANK2 assessed as enzyme activity at 1 uM relative to untreated control", "design": "scale not given: the % may be the effect or the level left"}, "[24]": {"system": "Tyrosine-protein kinase ABL1 (Homo sapiens), P00519 [E255K]", "assay": "Inhibition of ABL1 E255K mutant assessed as enzyme activity at 1 uM relative to untreated control", "design": "scale not given: the % may be the effect or the level left"}, "[25]": {"molecular_target": "Phosphatidylinositol 5-phosphate 4-kinase type-2 beta (Homo sapiens) (UniProt P78356)", "assay": "Inhibition of PIP5K2B assessed as enzyme activity at 1 uM relative to untreated control", "design": "scale not given: the % may be the effect or the level left"}, "[26]": {"molecular_target": "Tyrosine-protein kinase Lyn (Homo sapiens) (UniProt P07948)", "assay": "Inhibition of LYN assessed as enzyme activity at 1 uM relative to untreated control", "design": "scale not given: the % may be the effect or the level left"}, "[27]": {"molecular_target": "Ephrin type-A receptor 4 (Homo sapiens) (UniProt P54764)", "assay": "Inhibition of EPHA4 assessed as enzyme activity at 1 uM relative to untreated control", "design": "scale not given: the % may be the effect or the level left"}, "[28]": {"molecular_target": "Aurora kinase A (Homo sapiens) (UniProt O14965)", "assay": "Inhibition of AURKA assessed as enzyme activity at 1 uM relative to untreated control", "design": "scale not given: the % may be the effect or the level left"}, "[29]": {"molecular_target": "Cyclin-dependent kinase 18 (Homo sapiens) (UniProt Q07002)", "sequence (Q07002 whole entry)": "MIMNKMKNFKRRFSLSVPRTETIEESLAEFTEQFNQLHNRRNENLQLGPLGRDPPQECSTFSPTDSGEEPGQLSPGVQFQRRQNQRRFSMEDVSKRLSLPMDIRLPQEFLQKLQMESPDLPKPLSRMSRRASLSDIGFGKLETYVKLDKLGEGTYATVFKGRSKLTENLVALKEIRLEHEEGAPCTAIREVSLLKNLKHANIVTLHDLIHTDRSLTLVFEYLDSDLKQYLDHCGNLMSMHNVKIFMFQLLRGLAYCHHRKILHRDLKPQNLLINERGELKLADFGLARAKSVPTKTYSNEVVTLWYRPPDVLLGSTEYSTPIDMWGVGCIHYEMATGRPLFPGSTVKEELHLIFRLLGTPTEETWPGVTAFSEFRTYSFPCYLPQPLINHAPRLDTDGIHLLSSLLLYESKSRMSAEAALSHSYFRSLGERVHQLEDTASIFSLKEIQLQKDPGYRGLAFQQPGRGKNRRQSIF", "assay": "Inhibition of PCTK3 assessed as enzyme activity at 1 uM relative to untreated control", "design": "scale not given: the % may be the effect or the level left"}, "[30]": {"molecular_target": "Serine/threonine-protein kinase 10 (Homo sapiens) (UniProt O94804)", "assay": "Inhibition of LOK assessed as enzyme activity at 1 uM relative to untreated control", "design": "scale not given: the % may be the effect or the level left"}, "[31]": {"molecular_target": "Calcium/calmodulin-dependent protein kinase type IV (Homo sapiens) (UniProt Q16566)", "assay": "Inhibition of CAMK4 assessed as enzyme activity at 1 uM relative to untreated control", "design": "scale not given: the % may be the effect or the level left"}, "[32]": {"molecular_target": "Ephrin type-A receptor 3 (Homo sapiens) (UniProt P29320)", "assay": "Inhibition of EPHA3 assessed as enzyme activity at 1 uM relative to untreated control", "design": "scale not given: the % may be the effect or the level left"}, "[33]": {"molecular_target": "Mitogen-activated protein kinase 6 (Homo sapiens) (UniProt Q16659)", "assay": "Inhibition of ERK3 assessed as enzyme activity at 1 uM relative to untreated control", "design": "scale not given: the % may be the effect or the level left"}, "[34]": {"molecular_target": "Casein kinase I isoform alpha-like (Homo sapiens) (UniProt Q8N752)", "assay": "Inhibition of CSNK1A1L assessed as enzyme activity at 1 uM relative to untreated control", "design": "scale not given: the % may be the effect or the level left"}, "[35]": {"molecular_target": "Ribosomal protein S6 kinase alpha-4 (Homo sapiens) (UniProt O75676)", "assay": "Inhibition of RPS6KA4 kinase domain 2 assessed as enzyme activity at 1 uM relative to untreated control", "design": "scale not given: the % may be the effect or the level left"}, "[36]": {"molecular_target": "High affinity nerve growth factor receptor (Homo sapiens) (UniProt P04629)", "assay": "Inhibition of TRKA assessed as enzyme activity at 1 uM relative to untreated control", "design": "scale not given: the % may be the effect or the level left"}, "[37]": {"molecular_target": "Inhibitor of nuclear factor kappa-B kinase subunit epsilon (Homo sapiens) (UniProt Q14164)", "assay": "Inhibition of IKK-epsilon assessed as enzyme activity at 1 uM relative to untreated control", "design": "scale not given: the % may be the effect or the level left"}}}
{"smiles": "Cc1ccc2c(Nc3ccc(Cl)cc3)nccc2c1Nc1ncccc1-c1ncnc2[nH]cnc12.Cl.Cl.Cl", "values": [{"measurement": "Activity", "setting": "[1]", "value": 0.25, "unit": "%"}, {"measurement": "Activity", "setting": "[2]", "value": 100, "unit": "%"}, {"measurement": "Activity", "setting": "[3]", "value": 89, "unit": "%"}, {"measurement": "Activity", "setting": "[4]", "value": 100, "unit": "%"}, {"measurement": "Activity", "setting": "[5]", "value": 86, "unit": "%"}, {"measurement": "Activity", "setting": "[6]", "value": 90, "unit": "%"}, {"measurement": "Activity", "setting": "[7]", "value": 100, "unit": "%"}, {"measurement": "Activity", "setting": "[8]", "value": 92, "unit": "%"}, {"measurement": "Activity", "setting": "[9]", "value": 40, "unit": "%"}, {"measurement": "Activity", "setting": "[10]", "value": 100, "unit": "%"}, {"measurement": "Activity", "setting": "[11]", "value": 100, "unit": "%"}, {"measurement": "Activity", "setting": "[12]", "value": 40, "unit": "%"}, {"measurement": "Activity", "setting": "[13]", "value": 36, "unit": "%"}, {"measurement": "Activity", "setting": "[14]", "value": 100, "unit": "%"}, {"measurement": "Activity", "setting": "[15]", "value": 86, "unit": "%"}, {"measurement": "Activity", "setting": "[16]", "value": 100, "unit": "%"}, {"measurement": "Activity", "setting": "[17]", "value": 87, "unit": "%"}, {"measurement": "Activity", "setting": "[18]", "value": 100, "unit": "%"}, {"measurement": "Activity", "setting": "[19]", "value": 100, "unit": "%"}, {"measurement": "Activity", "setting": "[20]", "value": 0, "unit": "%"}, {"measurement": "bioavailability", "setting": "[21]", "value": 80, "unit": "%"}, {"measurement": "Activity", "setting": "[22]", "value": 100, "unit": "%"}, {"measurement": "Activity", "setting": "[23]", "value": 95, "unit": "%"}, {"measurement": "Activity", "setting": "[24]", "value": 80, "unit": "%"}, {"measurement": "Activity", "setting": "[25]", "value": 57, "unit": "%"}, {"measurement": "Activity", "setting": "[26]", "value": 18, "unit": "%"}, {"measurement": "Activity", "setting": "[27]", "value": 22, "unit": "%"}, {"measurement": "Activity", "setting": "[28]", "value": 100, "unit": "%"}, {"measurement": "Activity", "setting": "[29]", "value": 95, "unit": "%"}, {"measurement": "Activity", "setting": "[30]", "value": 0, "unit": "%"}, {"measurement": "Activity", "setting": "[31]", "value": 96, "unit": "%"}, {"measurement": "Activity", "setting": "[32]", "value": 74, "unit": "%"}, {"measurement": "Activity", "setting": "[33]", "value": 98, "unit": "%"}, {"measurement": "Activity", "setting": "[34]", "value": 95, "unit": "%"}, {"measurement": "Activity", "setting": "[35]", "value": 89, "unit": "%"}, {"measurement": "Activity", "setting": "[36]", "value": 15, "unit": "%"}, {"measurement": "Activity", "setting": "[37]", "value": 73, "unit": "%"}]}
